Laboratory results reported in patent US20260256789A1, “METHODS FOR TREATMENT OF CANCER” (Frontier Medicines Corporation, priority 2022, published 2026).

Target: T1, KRAS G12C (GMPPNP-loaded) and cRAF Ras-binding domain (Homo sapiens, UniProt P01116, C118S/C51S/C80L/G12C)
T1 construct: truncated version comprising amino acids 1-169
Assay: Inhibition of KRAS G12C and cRAF binding (AlphaScreen)
Details: KRAS G12C preloaded with GTP analogue GMPPNP, 2 hours preincubation
How it was run: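 AlphaScreen used biotin-AviTag KRAS G12C (Cys-light, aa 1-169; 0.5 nM), GMPPNP-loaded, preincubated 2 h with compound (top 50 μM, 1:3, 10 points, 2% DMSO) in pH 7.4 Hepes buffer with 10 μM GMPPNP. GST-cRAF RBD (aa 50-131; 0.75 nM) plus beads were then added for 60-90 min at room temperature, and IC50 came from a 4-parameter fit.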

T1 sequence (P01116 1-169 isoform P01116-2 G12C/C51S/C80L/C118S): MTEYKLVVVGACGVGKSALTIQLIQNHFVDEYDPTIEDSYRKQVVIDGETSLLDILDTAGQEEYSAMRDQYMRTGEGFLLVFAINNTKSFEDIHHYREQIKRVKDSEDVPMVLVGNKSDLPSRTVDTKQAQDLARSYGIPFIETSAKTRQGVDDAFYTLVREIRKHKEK

C=CC(=O)N1CC(CN(C)c2nc(OC[C@@]34CCCN3C[C@H](F)C4)nc3c2CC(C)C(c2nc(N)cc(C)c2C(F)(F)F)C3)C1 (stereo partly drawn) [Example 67, 1-(3-(((7-(6-amino-4-methyl-3-(trifluoromethyl)pyridin-2-yl)-2-(((2R,7aS)-2-fluorohexahydro-1H-pyrrolizin-7a-yl)methoxy)-6-methyl-5,6,7,8-tetrahydroquinazolin-4-yl)(methyl)amino)methyl)azetidin-1-yl)prop-2-en-1-one] was tested, and the IC50 was no less than 500 nM.
C=CC(=O)N1CC[C@@H](N(C)c2nc(OC[C@@]34CCCN3C[C@H](F)C4)nc3c2CC(C)C(c2nc(N)cc(C)c2C(F)(F)F)C3)C1 (stereo partly drawn) [Example 68, 1-((3R)-3-((7-(6-amino-4-methyl-3-(trifluoromethyl)pyridin-2-yl)-2-(((2R,7aS)-2-fluorohexahydro-1H-pyrrolizin-7a-yl)methoxy)-6-methyl-5,6,7,8-tetrahydroquinazolin-4-yl)(methyl)amino)pyrrolidin-1-yl)prop-2-en-1-one] was tested, and the IC50 was 100 to 500 nM.
For Cc1cc(N)nc(-c2ncc3c(N(C)[C@@H]4CCN(C(=O)/C=C/c5nc(C(C)C)no5)C4)nc(OC[C@@]45CCCN4C[C@H](F)C5)nc3c2F)c1C1CC1 [Example 170], the IC50 was 10 to 100 nM.
Cc1cc(N)nc(N2CCc3c(nc(OC[C@@]45CCCN4C[C@H](F)C5)nc3N(C)[C@@H]3CCN(C#N)C3)C2)c1C(F)(F)F [Example 203] gave an IC50 of no less than 500 nM.
With CN(C)C/C=C/C(=O)N1CC[C@@H](N(C)c2nc(OC[C@@]34CCCN3C[C@H](F)C4)nc3c(F)c(-c4nc(N)cc5cccc(Cl)c45)ncc23)C1 [Example 61, (E)-1-((R)-3-((7-(3-amino-8-chloroisoquinolin-1-yl)-8-fluoro-2-(((2R,7aS)-2-fluorohexahydro-1H-pyrrolizin-7a-yl)methoxy)pyrido[4,3-d]pyrimidin-4-yl)(methyl)amino)pyrrolidin-1-yl)-4-(dimethylamino)but-2-en-1-one] the IC50 was 10 to 100 nM.
Compound C=CC(=O)N1CC[C@@H](N(C)c2nc(OC[C@@]34CCCN3C[C@H](F)C4)nc3c(F)c(-c4nc(N)ccc4C)ncc23)C1 [Example 125, 1-((R)-3-((7-(6-amino-3-methylpyridin-2-yl)-8-fluoro-2-(((2R,7aS)-2-fluorotetrahydro-1H-pyrrolizin-7a(5H)-yl)methoxy)pyrido[4,3-d]pyrimidin-4-yl)(methyl)amino)pyrrolidin-1-yl)prop-2-en-1-one] has an IC50 of no less than 500 nM.
In the case of C=CC(=O)N1CC[C@@H](N(C)c2nc(OC[C@@]34CCCN3C[C@H](F)C4)nc3c(F)c(-c4cc(C(F)F)cc(Cl)c4C4CC4)ncc23)C1 [Example 263], the IC50 is reported as no less than 500 nM.
Work on CN(C)CC#CC(=O)N1CC[C@@H](N(C)c2nc(OC[C@@]34CCCN3C[C@H](F)C4)nc3c(F)c(-c4nc(N)cc5cccc(F)c45)ncc23)C1 [Example 106] yielded an IC50 of less than 10 nM.
C=CC(=O)N1CC(CN(C)c2nc(OC[C@@]34CCCN3C[C@H](F)C4)nc3c(F)c(-c4nc(N)cc5cccc(Cl)c45)ncc23)C1 [Example 73, 1-(3-(((7-(3-amino-8-chloroisoquinolin-1-yl)-8-fluoro-2-(((2R,7aS)-2-fluorohexahydro-1H-pyrrolizin-7a-yl)methoxy)pyrido[4,3-d]pyrimidin-4-yl)(methyl)amino)methyl)azetidin-1-yl)prop-2-en-1-one] was tested, and the IC50 was 10 to 100 nM.
With Cc1nccc(/C=C/C(=O)N2CC[C@@H](N(C)c3nc(OC[C@@]45CCCN4C[C@H](F)C5)nc4c(F)c(-c5cc(O)cc(Cl)c5C5CC5)ncc34)C2)n1 [Example 254] the IC50 was less than 10 nM.
CN(C)C/C=C/C(=O)N1CC[C@@H](N(C)c2nc(OC[C@@]34CCCN3C[C@H](F)C4)nc3c(F)c(-c4cc(O)cc(Cl)c4C4CC4)ncc23)C1 [Example 197] showed an IC50 of less than 10 nM.
Compound C=CC(=O)N1CC(CN(C)c2nc(OC[C@@]34CCCN3C[C@H](F)C4)nc3c(F)c(-c4nc(N)cc(C)c4C(F)(F)F)ncc23)C1 [Example 64, 1-(3-(((7-(6-amino-4-methyl-3-(trifluoromethyl)pyridin-2-yl)-8-fluoro-2-(((2R,7aS)-2-fluorotetrahydro-1H-pyrrolizin-7a(5H)-yl)methoxy)pyrido[4,3-d]pyrimidin-4-yl)(methyl)amino)methyl)azetidin-1-yl)prop-2-en-1-one] has an IC50 of 10 to 100 nM.
For Cc1cc(N)nc(-c2ncc3c(N(C)CC4CN(C(=O)/C=C/c5nc(C6CC6)no5)C4)nc(OC[C@@]45CCCN4C[C@H](F)C5)nc3c2F)c1C(F)(F)F [Example 176], the IC50 was less than 10 nM.
With CN1CC[C@@H]1/C=C/C(=O)N1CC[C@@H](N(C)c2nc(OC[C@@]34CCCN3C[C@H](F)C4)nc3c(F)c(-c4nc(N)cc5cccc(F)c45)ncc23)C1 [Example 90] the IC50 was less than 10 nM.
With C=CC(=O)N1CC[C@@H](N(C)c2nc(OC[C@@]34CCCN3C[C@H](F)C4)nc3c(F)c(-c4nc(N)ccc4OC(F)F)ncc23)C1 [Example 261] the IC50 was no less than 500 nM.
Compound C=CC(=O)N1CC[C@@H](N(C)c2nc(OC[C@@]34CCCN3C[C@H](F)C4)nc3c2C[C@@H](C)[C@H](c2nc(N)cc(C)c2C(F)(F)F)C3)C1 [Example 59, 1-((R)-3-(((6R,7R)-7-(6-amino-4-methyl-3-(trifluoromethyl)pyridin-2-yl)-2-(((2R,7aS)-2-fluorohexahydro-1H-pyrrolizin-7a-yl)methoxy)-6-methyl-5,6,7,8-tetrahydroquinazolin-4-yl)(methyl)amino)pyrrolidin-1-yl)prop-2-en-1-one] has an IC50 of 100 to 500 nM.
In the case of Cc1cc(N)nc([C@@H]2Cc3nc(OC[C@@]45CCCN4C[C@H](F)C5)nc(N(C)CC4CN(C(=O)/C=C/c5nc(C(C)(C)O)no5)C4)c3C[C@H]2C)c1C(F)(F)F (single isomer, unassigned) [Example 162], the IC50 is reported as 10 to 100 nM.
Work on Cc1cc(N)nc(-c2ncc3c(N(C)CC4CN(C(=O)/C=C/c5nc(C(C)C)no5)C4)nc(OC[C@@]45CCCN4C[C@H](F)C5)nc3c2F)c1C(F)(F)F [Example 51, (E)-1-(3-(((7-(6-amino-4-methyl-3-(trifluoromethyl)pyridin-2-yl)-8-fluoro-2-(((2R,7aS)-2-fluorohexahydro-1H-pyrrolizin-7a-yl)methoxy)pyrido[4,3-d]pyrimidin-4-yl)(methyl)amino)methyl)azetidin-1-yl)-3-(3-isopropyl-1,2,4-oxadiazol-5-yl)prop-2-en-1-one] yielded an IC50 of less than 10 nM.
Work on C=CC(=O)N1CC[C@@H](N(C)c2nc(OC[C@@]34CCCN3C[C@H](F)C4)nc3c(F)c(-c4cncc5ccc(F)c(F)c45)ncc23)C1 [Example 190] yielded an IC50 of no less than 500 nM.
C=CC(=O)N1CC[C@H](O)[C@@H](N(C)c2nc(OC[C@@]34CCCN3C[C@H](F)C4)nc3c(F)c(-c4cccc(Cl)c4C(F)(F)F)ncc23)C1 [Example 205] showed an IC50 of no less than 500 nM.
Work on C=CC(=O)N1CC[C@@H](N(C)c2nc(OC[C@@]34CCCN3C[C@H](F)C4)nc3c(F)c(-c4cnn5cccc(F)c45)ncc23)C1 [Example 212] yielded an IC50 of no less than 500 nM.
In the case of CN1CC[C@H]1/C=C/C(=O)N1CC[C@@H](N(C)c2nc(OC[C@@]34CCCN3C[C@H](F)C4)nc3c(F)c(-c4nc(N)cc5cccc(Cl)c45)ncc23)C1 [Example 108], the IC50 is reported as 10 to 100 nM.
CN(c1nc(OC[C@@]23CCCN2C[C@H](F)C3)nc2c(F)c(-c3cccc(Cl)c3C3CC3)ncc12)[C@@H]1CCN(C(=O)/C=C/CN2C[C@H]3C[C@@H]2CO3)C1 [Example 245] showed an IC50 of 10 to 100 nM.
Compound C=CC(=O)N1CC[C@@H](N(C)c2nc(OC[C@@]34CCCN3C[C@H](F)C4)nc3c(F)c(-c4cccc(OC)c4C4CC4)ncc23)C1 [Example 189] has an IC50 of no less than 500 nM.
Compound C=CC(=O)N1CC(CN(C)c2nc(OCC34CCCN3CCC4)nc3c(F)c(-c4nc(N)cc(C)c4C4CC4)ncc23)C1 [Example 131, 1-(3-(((7-(6-amino-3-cyclopropyl-4-methylpyridin-2-yl)-8-fluoro-2-((tetrahydro-1H-pyrrolizin-7a(5H)-yl)methoxy)pyrido[4,3-d]pyrimidin-4-yl)(methyl)amino)methyl)azetidin-1-yl)prop-2-en-1-one] has an IC50 of no less than 500 nM.
Work on C=CC(=O)N1CC(CN(C)c2nc(OC[C@@]34CCCN3C[C@H](F)C4)nc3c2C[C@@H](C)[C@H](c2nc(N)cc(C)c2C(F)(F)F)C3)C1 [Example 132] yielded an IC50 of 100 to 500 nM.
With Cc1cc(N)nc([C@H]2Cc3nc(OC[C@@]45CCCN4C[C@H](F)C5)nc(N(C)[C@@H]4CCN(C(=O)/C=C/c5nc(C(C)(C)O)no5)C4)c3C[C@@H]2C)c1C(F)(F)F [Example 94, (E)-1-((R)-3-(((6S,7S)-7-(6-amino-4-methyl-3-(trifluoromethyl)pyridin-2-yl)-2-(((2R,7aS)-2-fluorotetrahydro-1H-pyrrolizin-7a(5H)-yl)methoxy)-6-methyl-5,6,7,8-tetrahydroquinazolin-4-yl)(methyl)amino)pyrrolidin-1-yl)-3-(3-(2-hydroxypropan-2-yl)-1,2,4-oxadiazol-5-yl)prop-2-en-1-one] the IC50 was no less than 500 nM.
With Cc1ncc(F)c(/C=C/C(=O)N2CC[C@@H](N(C)c3nc(OC[C@@]45CCCN4C[C@H](F)C5)nc4c(F)c(-c5cccc(Cl)c5C5CC5)ncc34)C2)n1 [Example 258] the IC50 was 100 to 500 nM.
In the case of CN(C)CC#CC(=O)N1CC(CN(C)c2nc(OC[C@@]34CCCN3C[C@H](F)C4)nc3c(F)c(-c4nc(N)cc5cccc(Cl)c45)ncc23)C1 [Example 110], the IC50 is reported as 10 to 100 nM.
CN1CC[C@H]1/C=C/C(=O)N1CC[C@@H](N(C)c2nc(OC[C@@]34CCCN3C[C@H](F)C4)nc3c(F)c(-c4nc(N)cc5cccc(F)c45)ncc23)C1 [Example 135] was tested, and the IC50 was 100 to 500 nM.
Work on Cc1noc(/C=C/C(=O)N2CC[C@@H](N(C)c3nc(OC[C@@]45CCCN4C[C@H](F)C5)nc4c(F)c(-c5nc(N)cc(C)c5C(F)(F)F)ncc34)C2)n1 [Example 55, (E)-1-((R)-3-((7-(6-amino-4-methyl-3-(trifluoromethyl)pyridin-2-yl)-8-fluoro-2-(((2R,7aS)-2-fluorotetrahydro-1H-pyrrolizin-7a(5H)-yl)methoxy)pyrido[4,3-d]pyrimidin-4-yl)(methyl)amino)pyrrolidin-1-yl)-3-(3-methyl-1,2,4-oxadiazol-5-yl)prop-2-en-1-one] yielded an IC50 of less than 10 nM.
